What was measured:
Assay type in all cases: in vivo
[1] = test system: C-peptide secretion; assay: Effect on C-peptide secretion in mice (serum C-peptide, radioimmunoassay); conditions: C57/BL/6J mice, 10 μg injected into abdominal cavity, FIG. 10
Experimental: As described in Example 14, C57/BL/6J mice were divided into two groups with the placebo group receiving 200 μl of saline injected into abdominal cavity and the testing group receiving 10 μg of GLP-1 (7-36). A radioimmunoassay kit (Shanghai Institute of Biological Products, Chinese Ministry of Health) for C-peptide was used to measure the effect of GLP-1 (7-36) on C-peptide secretion.

[2] = test system: blood glucose; assay: Effect on blood glucose level in glucose-loaded C57/BL/6J mice; conditions: C57/BL/6J mice fasted overnight, 200 μl of 40% glucose plus 2 μg peptide into abdominal cavity, 0, 30, 60, 120 min, FIG. 11
Experimental: Healthy C57/BL/6J mice were purchased from Shanghai Laboratory Animal Center of Chinese Academy of Sciences. The mice were divided into four groups with 6 mice in each group. Mice fasted overnight were injected by abdominal cavity. The placebo group were injected with 200 μl of 40% glucose solution, the testing group were injected with 200 μl of 40% glucose solution plus 2 μg of GLP-1 (7-36), the positive control group(I) were injected with 200 μl of 40% glucose solution plus 2 μg of GLP-1 (7-36)NH2 (Sigma), and the positive control group(II) were injected with 200 μl of 40% glucose solution plus 2 μg of GLP-1 (7-37) (Sigma). The moment when the animals received the injection was set as time zero. After the injection, 20 μl of blood sample were immediately drawn from optic sinus of each mouse with a heparin-treated capillary. The blood samples were immediately mixed with 300 μl of saline in a micro-centrifuge tube. The mixture was centrifuged at 3000 rpm to remove erythrocytes. The serum was used to measure serum glucose concentration. This procedure was repeated at the 30th, 60th and 120th minutes.
The serum blood glucose concentration was measured by a commercial kit (Shanghai Institute of Biological Products, Chinese Ministry of Health).

[3] = test system: blood glucose; assay: Comparison of reducing blood glucose effect in Kun Ming mice; conditions: fasted 4 hours, glucose 2 g/kg intraperitoneally, 50 ng/Kg peptide, 30 minutes; for Rate (reduction of blood glucose): versus control
Experimental: Kun Ming mice (40 in total, male, 23 g body weight/mouse) were divided into 4 groups. After fasting for 4 hours, each mouse was injected with glucose (2 g/kg body weight) intraperitoneally. Then mice in the testing group were rejected with 50 ng/Kg of GLP-1 (7-36), GLP-1 (7-36)NH2 (BACHEM) and GLP-1 (7-37)COOH (BACHEM) respectively, while mice in the control group were rejected with 0.9% NaCl saline. Blood sample was collected at the zero time and 30 minutes later for the analysis.

[4] = test system: insulin secretion; assay: Effect on insulin secretion in mice (serum insulin, radioimmunoassay); conditions: healthy C57/BL/6J mice, 2 μg injected into abdominal cavity, blood at 0, 5, 15, 30, 60 min, FIG. 9
Experimental: Healthy C57/BL/6J mice were purchased from the Shanghai Laboratory Animal Center of Chinese Academy of Sciences. The mice were divided into three groups with 6 mice in each group. The placebo group of mice received 200 μl of saline injected into their abdominal cavity, while the testing group received 2 μg of GLP-1 (7-36) and the positive control group received 2 μg of GLP-1 (7-36)NH2 (BACHEM). The moment when the animals received the injection was set as time zero. 50 μl of blood were drawn from the veins at angulus oculi with a graduated capillary which had been rinsed with heparin and then dried. The blood samples were subsequently drawn at 5, 15, 30 and 60 minutes. The blood samples were immediately mixed with 50 μl of saline in a micro-centrifuge tube. The mixture was centrifuged at 3000 rpm to remove erythrocytes. The serum was used to measure insulin concentration.
The radioimmunoassay kit (Shanghai Institute of Biological Products, Chinese Ministry of Health) for insulin was used to measure the effect of GLP-1 (7-36) on insulin secretion. […] This observation indicates the administration of either GLP-1 (7-36) or GLP-1 (7-36)NH2 enhances the secretion of insulin in mice.

| Substance | serum C-peptide concentration [1] | serum blood glucose concentration [2] | Blood Glucose [3] | Rate (reduction of blood glucose) [3] | serum insulin concentration [4] |
| --- | --- | --- | --- | --- | --- |
| His-Ala-Glu-Gly-Thr-Phe-Thr-Ser-Asp-Val-Ser-Ser-Tyr-Leu-Glu-Gly-Gln-Ala-Ala-Lys-Glu-Phe-Ile-Ala-Trp-Leu-Val-Lys-Gly-Arg−OH (HAEGTFTSDVSSYLEGQAAKEFIAWLVKGR; homo sapiens) [GLP-1 (7-36)] | significant increase | no obvious rise from the normal level | 6.51 mmol/L | 50.4% | significant increase |
| GLP-1 (7-36)NH2: natural GLP-1 form of 30 amino acid residues with C-terminal amidated; positive control from BACHEM or Sigma |  | no obvious rise from the normal level | 8.69 mmol/L | 36.8% | significant increase |
| GLP-1 (7-37): natural GLP-1 form of 31 amino acid residues; positive control from Sigma or BACHEM (HAEGTFTSDVSSYLEGQAAKEFIAWLVKGRG; homo sapiens) |  | no obvious rise from the normal level | 6.77 mmol/L | 50.7% |  |
